Assay results published in patent US20070275923A1, “CATIONIC PEPTIDES FOR siRNA [sequence] [sequence]” (NASTECH PHARMACEUTICAL COMPANY INC., priority 2006, published 2007).
Non-standard residues stand in square brackets, D forms with d. Residues, ends and D or L forms follow the SMILES beside them. *: point of attachment. Propanoyl(3-maleimido) = O=C1C=CC(=O)N1CCC(=O)*; Mal = not defined here

Experiments:
in vitro = settings: C57BL/6J, mouse, mouse tail fibroblast (MTF) cells
Protocol: (§1) Mouse tail fibroblast (MTF) cells were derived from the tails of C57BL/6J mice. Tails were removed, immersed in 70% ethanol and then cut into small sections with a razor blade. The sections were washed three times with PBS and then incubated in a shaker at 37° C. with 0.5 mg/mL collagenase, 100 units/mL penicillin and 100 μg/mL streptomycin to disrupt tissue. Tail sections were then cultured in complete media (Dulbecco's Modified […] Medium with 20% FBS, 1 mM sodium pyruvate, nonessential amino acids and 100 units/mL penicillin and 100 μg/mL streptomycin) until cells were established. Cells were cultured at 37° C., 5% CO2 in complete media as outlined above.
(§2) Cells were be plated per well in a microtiter plate the day before transfection in complete media. The siRNA was be labeled, for example with a FAM, Alexa488, Alexa647 or Cy-5 conjugate. The cationic polymer peptide and siRNA were mixed in the microtiter plate complex with cells previously with OptiMEM. 7-AAD was added to each transfection to measure cell viability. Cells were transfected for three hours at 37° C., 5% CO2. The transfection mixture was removed and the cells were washed with TE buffer for about 10 minutes at 37° C., 5% CO2. Transfected cells were transferred to a V bottom plate and centrifuged. The TE buffer was removed and the transfected cells were resuspended in fluorescence activated cell sorting (FACS) buffer.
(§3) A non-transfection, siRNA alone, control was also performed. The peptide PN183 served herein as a positive cell-uptake control.
(§4) Cell-uptake is expressed as a percentage of the total cells with intracellular labeled siRNA. Cell Viability is also expressed as a percentage where 100% represents 100% viability. The MFI value is a relative value with a higher MFI value indicating a greater amount of labeled siRNA entered the cell. Within Table 3, “ND” means no data.

[1] = test system: Mouse tail fibroblast (MTF) cells; assay: siRNA cell-uptake and MFI measured by FACS after peptide-mediated transfection of labeled siRNA; format: cell-based; settings: for intracellular delivery of siRNA (verbal conclusion from cell-uptake and cell viability): conclusion drawn from Table 3; for % Cell-Uptake / MFI: 200 nM labeled siRNA; for % Cell-Uptake: % of total cells with intracellular labeled siRNA; for MFI: relative value, higher = more labeled siRNA entered the cell
Protocol: SiRNA cell uptake was measured by FACS.
For the instant example, cell-uptake, mean fluorescent intensity (MFI) and cell viability was measured for each peptide. siRNA cell-uptake was measured by the presence of intracellular labeled siRNA. The cell-uptake assay determined the percentage of cells that contain the labeled siRNA. Mean Fluorescence Intensity (MFI) was used to determine the relative mean quantity of labeled siRNA that entered the cells.
A non-transfection, siRNA alone, control was also performed.
Within Table 3, “ND” means no data.

[2] = test system: Mouse tail fibroblast (MTF) cells; assay: in vitro; settings: 200 nM siRNA, 100% represents 100% viability
Protocol: as §1, §2, §3, §4

Compound | viability at 3 h, 1 µM (in vitro) | viability at 3 h, 10 µM (in vitro) | viability at 3 h, 100 µM (in vitro) | intracellular delivery of siRNA (verbal conclusion from cell-uptake and cell viability) [1] | % Cell-Uptake ([1]; peptide concentration 1 μM) | MFI ([1]; peptide concentration 1 μM) | % Cell-Uptake ([1]; peptide concentration 10 μM) | MFI ([1]; peptide concentration 10 μM) | % Cell-Uptake ([1]; peptide concentration 100 μM) | MFI ([1]; peptide concentration 100 μM) | % Cell Viability ([2]; peptide concentration 1 μM) | % Cell Viability ([2]; peptide concentration 10 μM) | % Cell Viability ([2]; peptide concentration 100 μM)
N=C(N)NCCC[C@@H](N)C(=O)N[C@@H](CCCNC(=N)N)C(=O)N[C@H](CCCNC(=N)N)C(=O)N[C@@H](CCCNC(=N)N)C(=O)N[C@H](CCCNC(=N)N)C(=O)N[C@@H](CCCNC(=N)N)C(=O)N[C@H](CCCNC(=N)N)C(=O)N[C@@H](CCCNC(=N)N)C(=O)N[C@H](CCCNC(=N)N)C(=O)N[C@@H](CCCNC(=N)N)C(=O)N[C@H](CCCNC(=N)N)C(=O)N[C@@H](CCCNC(=N)N)C(=O)N[C@H](CCCNC(=N)N)C(=O)N[C@@H](CCCNC(=N)N)C(=O)N[C@H](CCCNC(=N)N)C(=O)N[C@@H](CCCNC(=N)N)C(=O)N[C@H](CCCNC(=N)N)C(=O)N[C@@H](CCCNC(=N)N)C(=O)N[C@H](CCCNC(=N)N)C(=O)N[C@@H](CCCNC(=N)N)C(N)=O [PN912, NH2-(Xaa-Arg)10-amide] (H-[dR]R[dR]R[dR]R[dR]R[dR]R[dR]R[dR]R[dR]R[dR]R[dR]R-NH2) | 96.9% | 96.1% | 90% | effective intracellular delivery of siRNA without negatively impacting cell viability | 61.2% | 4.32 | 73.3% | 4.72 | 86.2% | 5.41 |  |  | 
CC[C@H](C)[C@H](NC(=O)[C@H](C)NC(=O)CNC(=O)[C@H](Cc1ccccc1)NC(=O)[C@@H](NC(=O)[C@H](CCC(=O)O)NC(=O)[C@H](CC(N)=O)NC(=O)CNC(=O)[C@H](Cc1c[nH]c2ccccc12)NC(=O)[C@H](CCC(=O)O)NC(=O)CNC(=O)[C@H](CCSC)NC(=O)[C@@H](NC(=O)[C@H](CC(=O)O)NC(=O)[C@@H]1CCCN1C(=O)[C@H](CCC(N)=O)NC(=O)[C@H](CO)NC(=O)[C@H](CCCCN)NC(=O)[C@H](CCCCN)NC(=O)[C@H](CCCCN)NC(=O)[C@H](CCCCN)NC(=O)[C@H](CCCCN)NC(=O)[C@H](CCCCN)NC(=O)[C@H](CCCCN)NC(=O)[C@H](CCCCN)NC(=O)CCN1C(=O)C=CC1=O)[C@@H](C)CC)[C@@H](C)CC)C(=O)N[C@@H](C)C(=O)NCC(=O)N[C@@H](Cc1ccccc1)C(=O)N[C@@H](CC(C)C)C(=O)NCC(N)=O [PN947] ({Propanoyl(3-maleimido)}-KKKKKKKKSQPDIMGEWGNEIFGAIAGFLG-NH2; N-terminus assumed) | 98.7% | 97.9% | 99.3% |  | 2.8% | 1.23 | 12.3% | 1.44 | 49.5% | 4.6 |  |  | 
PEG (2 KDa)-Mal-(Lys)10-amide ({PEG 2 kDa-Mal}-KKKKKKKKKK-NH2; reading uncertain; also: printed as PEG (2 KDa)-Mal-(Lys)10-amide) [PN933] |  |  |  |  | 0.3% |  | 0.5% |  | 0.2% |  | 97.7% | 98% | 98%
PEG (2 KDa)-Mal-(Lys)15-amide ({PEG 2 kDa-Mal}-KKKKKKKKKKKKKKK-NH2; reading uncertain; also: printed as PEG (2 KDa)-Mal-(Lys)15-amide) [PN930] |  |  |  |  | 0.2% |  | 1.5% |  | 0.8% |  | 97.9% | 97.2% | 97.8%
PEG (2 KDa)-Mal-(Lys)20-amide ({PEG 2 kDa-Mal}-KKKKKKKKKKKKKKKKKKKK-NH2; reading uncertain) [PN926] |  |  |  |  | 0.9% |  | 1.4% |  | 1.2% |  | 97.9% | 98.3% | 98.3%
PEG (2 KDa)-Mal-(Lys)25-amide [PN925] |  |  |  |  | 5.2% |  | 2.9% |  | 2.2% |  | 96.6% | 97.8% | 95.8%
PEG (2 KDa)-Mal-(Lys-His)10-amide ({PEG 2 kDa-Mal}-KHKHKHKHKHKHKHKHKHKH-NH2; reading uncertain) [PN939] |  |  |  | effective intracellular delivery of siRNA without negatively impacting cell viability | 66% | 3.3 | 97% | 35.1 | 97.3% | 3.33 | 98.6% | 99.7% | 99.1%
PEG (2 KDa)-Mal-(Lys-His)15-amide ({PEG 2 kDa-Mal}-KHKHKHKHKHKHKHKHKHKHKHKHKHKHKH-NH2; reading uncertain) [PN936] |  |  |  | effective intracellular delivery of siRNA without negatively impacting cell viability | 37.7% | 2.66 | 55.3% | 5.86 | 25.9% |  | 97.5% | 98.1% | 28.7%
PEG (10 KDa)-Mal-(Lys)10-amide ({PEG 10 kDa-Mal}-KKKKKKKKKK-NH2; reading uncertain; also: printed as PEG (10 KDa)-Mal-(Lys)10-amide) [PN934] |  |  |  |  | 0.2% |  | 1.1% |  | 0.3% |  | 98.3% | 96.2% | 97.4%
PEG (10 KDa)-Mal-(Lys)15-amide ({PEG 10 kDa-Mal}-KKKKKKKKKKKKKKK-NH2; reading uncertain; also: printed as PEG (10 KDa)-Mal-(Lys)15-amide) [PN931] |  |  |  |  | 0.6% |  | 0.7% |  | 0.5% |  | 97% | 97.7% | 98.4%
PEG (10 KDa)-Mal-(Lys)20-amide ({PEG 10 kDa-Mal}-KKKKKKKKKKKKKKKKKKKK-NH2; reading uncertain) [PN928] |  |  |  |  | 3.9% |  | 2.3% |  | 3.2% |  | 97.3% | 98% | 98.2%
PEG (10 KDa)-Mal-(Lys)25-amide [PN927] |  |  |  |  | 1.6% |  | 0.8% |  | 0.7% |  | 95.6% | 97% | 97.3%
PEG (10 KDa)-Mal-(Lys-His)10-amide ({PEG 10 kDa-Mal}-KHKHKHKHKHKHKHKHKHKH-NH2; reading uncertain) [PN940] |  |  |  | effective intracellular delivery of siRNA without negatively impacting cell viability | 69.9% | 4.81 | 70.6% | 2.54 |  |  | 99.1% | 98.4% | 
PEG (10 KDa)-Mal-(Lys-His)15-amide ({PEG 10 kDa-Mal}-KHKHKHKHKHKHKHKHKHKHKHKHKHKHKH-NH2; reading uncertain) [PN937] |  |  |  | effective intracellular delivery of siRNA without negatively impacting cell viability | 54.7% | 3.18 | 92.6% | 6.41 |  |  | 99% | 99.4% | 
PEG (10 KDa)-Mal-Trp-(Lys)30-amide (WKKKKKKKKKKKKKKKKKKKKKKKKKKKKKK; PEG 10 kDa maleimide; C-terminal amide) [PN986] |  |  |  |  | 0.6% |  | 0.8% |  | 2.5% |  | 97.4% | 97.2% | 93.6%
